{
  "source": "paper PMC3089953",
  "about": "(Bioorganic & medicinal chemistry letters, 2009)",
  "key": {"PBM, CEM, and Vero cells": {"test_system": "PBM, CEM, and Vero cells", "assay": "Cytotoxicity in PBM, CEM and Vero cells", "format": "cell-based"}, "PBM cells [1]": {"test_system": "PBM cells", "assay": "Intracellular metabolism in PBM cells", "format": "in vitro ADME, human", "details": "50 μM for 4 h at 37 °C, LC/MS/MS"}, "adenosine deaminase": {"test_system": "adenosine deaminase", "assay": "Conversion by purified adenosine deaminase", "details": "pH 7.4, 25 °C; for Conversion to AZG by adenosine deaminase: 0.2 units per mL enzyme, 120 min, 50 μM nucleoside"}, "in vitro": {"assay": "in vitro", "format": "cell-based", "details": "human, CEM cells (T-cell-derived cell line)"}, "[2]": {"assay": "Cytotoxicity in Vero cells", "format": "cell-based, African green monkey", "details": "African green monkey, Vero cells (kidney epithelial cells)"}, "PBM cells [3]": {"test_system": "PBM cells", "assay": "Cytotoxicity in PBM cells", "format": "cell-based", "details": "human"}, "[4]": {"details": "cited from earlier work"}, "HIV-1LAI": {"test_system": "HIV-1LAI", "assay": "Anti-HIV activity against HIV-1LAI in human PBM cells", "format": "cell-based"}, "CEM cells": {"test_system": "CEM cells", "assay": "in vitro", "format": "cell-based", "details": "CEM cells"}, "Vero cells": {"test_system": "Vero cells", "assay": "Cytotoxicity in Vero cells", "format": "cell-based, African green monkey", "details": "Vero cells"}},
  "note": "“Also recorded” adds a separate entry of the source.",
  "data": [
    {"smiles": "[N-]=[N+]=N[C@H]1C[C@H](n2cnc3c(N)nc(F)nc32)O[C@@H]1CO", "note": "[Compound 35]", "values": [
      {"measurement": "Cytotoxicity", "setting": "PBM, CEM, and Vero cells", "value": "increase in cytotoxicity"}
    ]},
    {"smiles": "[N-]=[N+]=N[C@H]1C[C@H](n2cnc3c(Cl)nc(N)nc32)O[C@@H]1CO", "note": "[Compound 10]", "values": [
      {"measurement": "Conversion to AZG-TP in PBM cells", "setting": "PBM cells [1]", "value": "converted to AZG-TP"},
      {"measurement": "Detection of the nucleoside analog in the triphosphate (TP) form", "setting": "PBM cells [1]", "value": "unable to detect"},
      {"measurement": "Conversion to AZG by adenosine deaminase", "setting": "adenosine deaminase", "value": "substantially or completely converted to AZG"}
    ]},
    {"smiles": "[N-]=[N+]=N[C@H]1C[C@H](n2cnc3c(NCCO)nc(N)nc32)O[C@@H]1CO", "note": "[Compound 26]", "values": [
      {"measurement": "IC50", "setting": "in vitro", "value": "> 100", "unit": "µM"},
      {"measurement": "IC50", "setting": "[2]", "value": "> 100", "unit": "µM"}
    ]},
    {"smiles": "[N-]=[N+]=N[C@H]1C[C@H](n2cnc3c(NC4CC4)nc(Cl)nc32)O[C@@H]1CO", "note": "[Compound 33]", "values": [
      {"measurement": "IC50", "setting": "in vitro", "value": "> 100", "unit": "µM"},
      {"measurement": "IC50", "setting": "[2]", "value": "> 100", "unit": "µM"}
    ]},
    {"smiles": "[N-]=[N+]=N[C@H]1C[C@H](n2cnc3c(N)nc(Cl)nc32)O[C@@H]1CO", "note": "[Compound 31]", "values": [
      {"measurement": "IC50", "setting": "in vitro", "value": "> 100", "unit": "µM"},
      {"measurement": "IC50", "setting": "[2]", "value": "> 100", "unit": "µM"}
    ]},
    {"smiles": "COc1nc(F)nc2c1ncn2[C@H]1C[C@H](N=[N+]=[N-])[C@@H](CO)O1", "note": "[Compound 36]", "values": [
      {"measurement": "IC50", "setting": "in vitro", "value": "> 100", "unit": "µM"},
      {"measurement": "IC50", "setting": "[2]", "value": "> 100", "unit": "µM"}
    ]},
    {"smiles": "COc1nc(Cl)nc2c1ncn2[C@H]1C[C@H](N=[N+]=[N-])[C@@H](CO)O1", "note": "[Compound 30]", "values": [
      {"measurement": "IC50", "setting": "in vitro", "value": "> 100", "unit": "µM"},
      {"measurement": "IC50", "setting": "[2]", "value": "> 100", "unit": "µM"}
    ]},
    {"smiles": "COc1nc(OC)c2ncn([C@H]3C[C@H](N=[N+]=[N-])[C@@H](CO)O3)c2n1", "note": "[Compound 39]", "values": [
      {"measurement": "IC50", "setting": "in vitro", "value": "> 100", "unit": "µM"},
      {"measurement": "IC50", "setting": "[2]", "value": "> 100", "unit": "µM"},
      {"measurement": "No cytotoxicity up to", "setting": "PBM, CEM, and Vero cells", "value": "> 100", "unit": "µM"}
    ]},
    {"smiles": "COc1nc(N)c2ncn([C@H]3C[C@H](N=[N+]=[N-])[C@@H](CO)O3)c2n1", "note": "[Compound 38]", "values": [
      {"measurement": "IC50", "setting": "in vitro", "value": "> 100", "unit": "µM"},
      {"measurement": "IC50", "setting": "[2]", "value": "> 100", "unit": "µM"}
    ]},
    {"smiles": "CC(C)(CO)Nc1nc(N)nc2c1ncn2[C@H]1C[C@H](N=[N+]=[N-])[C@@H](CO)O1", "note": "[Compound 24]", "values": [
      {"measurement": "IC50", "setting": "in vitro", "value": "> 100", "unit": "µM"},
      {"measurement": "IC50", "setting": "[2]", "value": "> 100", "unit": "µM"}
    ]},
    {"smiles": "CN(C)c1nc(N)nc2c1ncn2[C@H]1C[C@H](N=[N+]=[N-])[C@@H](CO)O1", "note": "[Compound 18]", "values": [
      {"measurement": "IC50", "setting": "in vitro", "value": "> 100", "unit": "µM"},
      {"measurement": "IC50", "setting": "[2]", "value": "> 100", "unit": "µM"},
      {"measurement": "Conversion to AZG-TP in PBM cells", "setting": "PBM cells [1]", "value": "converted to AZG-TP"},
      {"measurement": "Detection of the nucleoside analog in the triphosphate (TP) form", "setting": "PBM cells [1]", "value": "unable to detect"},
      {"measurement": "Conversion to AZG by adenosine deaminase", "setting": "adenosine deaminase", "value": "resistant to adenosine deaminase"}
    ]},
    {"smiles": "[N-]=[N+]=N[C@H]1C[C@H](n2cnc3c(N)nc(N)nc32)O[C@@H]1CO", "note": "[Compound 12]", "values": [
      {"measurement": "Conversion to AZG-TP in PBM cells", "setting": "PBM cells [1]", "value": "converted to AZG-TP"},
      {"measurement": "Conversion to AZG by adenosine deaminase", "setting": "adenosine deaminase", "value": "substantially or completely converted to AZG; also recorded: substantially converted to AZG"}
    ]},
    {"smiles": "Cc1cn([C@H]2C[C@H](N=[N+]=[N-])[C@@H](CO)O2)c(=O)[nH]c1=O", "note": "[AZT, 3′-Azido-3′-deoxythymidine]", "values": [
      {"measurement": "IC50", "setting": "PBM cells [3]", "value": "> 100", "unit": "µM"},
      {"measurement": "Bone marrow toxicity, share of the patients", "setting": "[4]", "value": "about 5%"}
    ]},
    {"smiles": "Nc1ncnc2c1ncn2[C@H]1C[C@H](O)[C@@H](CO)O1", "note": "[2′-Deoxyadenosine, reference compound]", "values": [
      {"measurement": "Deaminated to 2′-deoxyinosine", "setting": "adenosine deaminase; 7 min with 0.002 units of enzyme, 50 μM, positive control", "value": 59, "unit": "%"}
    ]},
    {"smiles": "C#CCNc1nc(N)nc2c1ncn2[C@H]1C[C@H](N=[N+]=[N-])[C@@H](CO)O1", "note": "[Compound 22]", "values": [
      {"measurement": "Anti-HIV activity", "setting": "HIV-1LAI", "value": "significantly less active"},
      {"measurement": "Cytotoxicity", "setting": "PBM, CEM, and Vero cells", "value": "no toxicity"}
    ]},
    {"smiles": "C=CCN(C)c1nc(N)nc2c1ncn2[C@H]1C[C@H](N=[N+]=[N-])[C@@H](CO)O1", "note": "[Compound 21]", "values": [
      {"measurement": "Toxicity in CEM cells", "setting": "CEM cells", "value": "increased toxicity"},
      {"measurement": "Toxicity in Vero cells", "setting": "Vero cells", "value": "increased toxicity"}
    ]},
    {"smiles": "[N-]=[N+]=N[C@H]1C[C@H](n2cnc3c(Cl)nc(F)nc32)O[C@@H]1CO", "note": "[Compound 37]", "values": [
      {"measurement": "Cytotoxicity", "setting": "PBM, CEM, and Vero cells", "value": "increase in cytotoxicity"}
    ]},
    {"smiles": "COc1nc(N)nc2c1ncn2[C@H]1C[C@H](N=[N+]=[N-])[C@@H](CO)O1", "note": "[Compound 17]", "values": [
      {"measurement": "Conversion to AZG-TP in PBM cells", "setting": "PBM cells [1]", "value": "converted to AZG-TP"},
      {"measurement": "Detection of the nucleoside analog in the triphosphate (TP) form", "setting": "PBM cells [1]", "value": "unable to detect"},
      {"measurement": "Conversion to AZG by adenosine deaminase", "setting": "adenosine deaminase", "value": "substantially or completely converted to AZG"}
    ]},
    {"smiles": "C=CCNc1nc(N)nc2c1ncn2[C@H]1C[C@H](N=[N+]=[N-])[C@@H](CO)O1", "note": "[Compound 20]", "values": [
      {"measurement": "Conversion to AZG-TP in PBM cells", "setting": "PBM cells [1]", "value": "converted to AZG-TP"},
      {"measurement": "Detection of the nucleoside analog in the triphosphate (TP) form", "setting": "PBM cells [1]", "value": "unable to detect"},
      {"measurement": "Conversion to AZG by adenosine deaminase", "setting": "adenosine deaminase", "value": "substantially or completely converted to AZG"}
    ]},
    {"smiles": "CN(C)c1nc(Cl)nc2c1ncn2[C@H]1C[C@H](N=[N+]=[N-])[C@@H](CO)O1", "note": "[Compound 34]", "values": [
      {"measurement": "IC50", "setting": "in vitro", "value": "> 100", "unit": "µM"},
      {"measurement": "IC50", "setting": "[2]", "value": "> 100", "unit": "µM"}
    ]},
    {"smiles": "[N-]=[N+]=N[C@H]1C[C@H](n2cnc3c(NC4CC4)nc(N)nc32)O[C@@H]1CO", "note": "[Compound 19]", "values": [
      {"measurement": "IC50", "setting": "in vitro", "value": "> 100", "unit": "µM"},
      {"measurement": "IC50", "setting": "[2]", "value": "> 100", "unit": "µM"},
      {"measurement": "Conversion to AZG-TP in PBM cells", "setting": "PBM cells [1]", "value": "converted to AZG-TP"},
      {"measurement": "Detection of the nucleoside analog in the triphosphate (TP) form", "setting": "PBM cells [1]", "value": "unable to detect"},
      {"measurement": "Conversion to AZG by adenosine deaminase", "setting": "adenosine deaminase", "value": "substantially or completely converted to AZG"}
    ]},
    {"smiles": "COc1nc(NC2CC2)c2ncn([C@H]3C[C@H](N=[N+]=[N-])[C@@H](CO)O3)c2n1", "note": "[Compound 40]", "values": [
      {"measurement": "IC50", "setting": "in vitro", "value": "> 100", "unit": "µM"},
      {"measurement": "IC50", "setting": "[2]", "value": "> 100", "unit": "µM"}
    ]}
  ]
}
